Source: article PMC10497752, “Heparins are potent inhibitors of ectonucleotide pyrophosphatase/phospho-diesterase-1 (NPP1) – a promising target for the immunotherapy of cancer” (Frontiers in Immunology, 2023)

Tested on: ectonucleotidases expressed in U87 cell membrane preparations
Test: Enzymatic assay on U87 cell membrane preparations (adenosine formation, CE)
Format: biochemical, human
Details: 10 µg, 30 min 37°C, substrate 6 to 500 µM
Experimental: U87 glioblastoma cells were grown in cell culture dishes until reaching a fully covered confluent cell layer. Cells were cultivated at 37°C and 5% CO2 in DMEM with additions of 10% FCS, 1% penicillin/streptomycin (P/S) mixture and 1% L-glutamine. When confluent, the cell culture media was carefully removed and cells were frozen at -20°C overnight. The cells were then scraped off with a cell scraper using 2-3 mL of buffer (5 mM Tris, 2 mM EDTA, pH 7.4), homogenized and centrifuged for 10 min at 1000 g. The supernatant was collected and centrifuged for 60 min at 48000 g and 4°C. The pellet was then resuspended twice with Tris buffer, pH 7.4, followed by vortexing and centrifugation. The whole procedure was performed on ice. Finally, the pellet was resuspended and homogenized. A protein concentration of 1.5 mg/mL was determined with the Bradford method ([35]), and the protein was kept at -20°C until used. The enzymatic assay was performed by incubating the membrane preparation and the substrate at 37°C and 500 rpm for 30 min, followed by heat inactivation at 95°C for 5 min. For the determination of kinetic parameters, several substrate concentrations (from 6 to 500 µM of ATP or AMP) were utilized and incubated with 10 µg of membrane preparation for 30 min at 37°C, followed by heat inactivation. Capillary electrophoresis (CE) was used for analysis and quantification of the enzymatic product according to published procedures ([11], [36]). For the determination of the enzymatic activity 400 µM of ATP were employed, and three different amounts of membrane preparation (6, 10 and 30 µg of protein) were utilized. A positive control using the known NPP1 inhibitor PSB-POM-141 (20 µM) was performed ([19]). Data were obtained from three independent experiments each in duplicate measurements. […] Controls were run in parallel.

SMILES | Km [µM]
Nc1ncnc2c1ncn2[C@@H]1O[C@H](COP(=O)(O)O)[C@@H](O)[C@H]1O [AMP] | 38
Nc1ncnc2c1ncn2[C@@H]1O[C@H](COP(=O)(O)OP(=O)(O)OP(=O)(O)O)[C@@H](O)[C@H]1O [ATP] | 83
